# Legend:
# Assay in all cases: relative viability (nuclei count vs DMSO), 5 days (fraction); higher = more cells survive
# AZ505 + Decitabine = compound: C1CCC(CC1)N(CCNCCC2=C3C(=C(C=C2)O)NC(=O)CO3)C(=O)CCNCCC4=CC(=C(C=C4)Cl)Cl [AZ505] + Nc1ncn([C@H]2C[C@H](O)[C@@H](CO)O2)c(=O)n1 [Decitabine] (partner 2 µM)
# Method in brief: (§1)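 Relative viability divides the nuclei count in treated wells by that in vehicle wells. Lung cancer cell lines were seeded in 1536-well plates, dosed by pin tool the next day, and fixed and stained after 5 days in one step with final 0.05% Triton X-100, 1% formaldehyde and 1 ug/ml Hoechst. Dosing was a single drug or a fixed anchor-drug dose plus five library-drug doses (not always all listed) in √10 steps, and values are medians of duplicate plates imaged at 4×.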
# AZ505 + Vorinostat = compound: C1CCC(CC1)N(CCNCCC2=C3C(=C(C=C2)O)NC(=O)CO3)C(=O)CCNCCC4=CC(=C(C=C4)Cl)Cl [AZ505] + O=C(CCCCCCC(=O)Nc1ccccc1)NO [Vorinostat] (partner 1 µM)
# Method in brief: as §1
# Dactolisib + Lapatinib = compound: Cn1c(=O)n(-c2ccc(C(C)(C)C#N)cc2)c2c3cc(-c4cnc5ccccc5c4)ccc3ncc21 [Dactolisib] + CS(=O)(=O)CCNCc1ccc(-c2ccc3ncnc(Nc4ccc(OCc5cccc(F)c5)c(Cl)c4)c3c2)o1 [Lapatinib] (partner 2 µM)
# Method in brief: as §1
# Dactolisib + Alpelisib = compound: Cn1c(=O)n(-c2ccc(C(C)(C)C#N)cc2)c2c3cc(-c4cnc5ccccc5c4)ccc3ncc21 [Dactolisib] + Cc1nc(NC(=O)N2CCC[C@H]2C(N)=O)sc1-c1ccnc(C(C)(C)C(F)(F)F)c1 [Alpelisib] (partner 2 µM)
# Method in brief: as §1
Cell Line,relative viability (AZ505 + Decitabine; first compound 0.08 µM),relative viability (AZ505 + Decitabine; first compound 0.253 µM),relative viability (AZ505 + Decitabine; first compound 0.8 µM),relative viability (AZ505 + Decitabine; first compound 2.53 µM),relative viability (AZ505 + Decitabine; first compound 8 µM),relative viability (AZ505 + Vorinostat; first compound 0.08 µM),relative viability (AZ505 + Vorinostat; first compound 0.253 µM),relative viability (AZ505 + Vorinostat; first compound 0.8 µM),relative viability (AZ505 + Vorinostat; first compound 2.53 µM),relative viability (AZ505 + Vorinostat; first compound 8 µM),relative viability (Dactolisib + Lapatinib; first compound 0.002 µM),relative viability (Dactolisib + Lapatinib; first compound 0.006325 µM),relative viability (Dactolisib + Lapatinib; first compound 0.02 µM),relative viability (Dactolisib + Lapatinib; first compound 0.06325 µM),relative viability (Dactolisib + Lapatinib; first compound 0.2 µM),relative viability (Dactolisib + Alpelisib; first compound 0.002 µM),relative viability (Dactolisib + Alpelisib; first compound 0.006325 µM),relative viability (Dactolisib + Alpelisib; first compound 0.02 µM),relative viability (Dactolisib + Alpelisib; first compound 0.06325 µM),relative viability (Dactolisib + Alpelisib; first compound 0.2 µM)
COR-L23,0.378,0.449,0.381,0.458,0.443,0.415,0.312,0.364,0.407,0.377,1.39,0.864,0.765,0.299,0.295,0.8,0.646,0.419,0.199,0.149
COR-L 105,0.375,0.653,0.591,0.637,0.729,0.778,0.87,0.86,0.902,0.89,0.311,0.355,0.363,0.267,0.35,1.02,0.915,1.12,0.436,0.297
EKVX,,0.35,0.318,0.349,0.349,0.66,0.766,0.687,0.548,0.899,0.242,0.189,0.212,0.164,0.129,0.937,0.878,0.759,0.463,0.369
EMC-BAC-2,0.938,,0.862,0.924,0.943,0.486,,0.512,0.547,0.722,0.921,0.856,0.889,0.703,0.604,0.802,0.708,0.69,0.542,0.374
EPLC-272H,0.35,0.352,0.305,0.343,0.354,0.443,0.516,0.413,0.52,0.398,0.879,0.728,0.664,0.687,0.4,0.961,0.752,0.779,0.527,0.465
H3255,,0.607,0.583,0.6,0.925,,0.799,0.796,0.84,0.923,0.329,0.257,0.226,0.237,0.225,0.767,0.709,0.653,0.481,0.314
HARA,0.302,,0.41,0.482,0.408,0.547,0.522,0.457,0.471,0.541,0.652,0.67,0.761,0.421,0.318,1.15,0.78,0.809,0.594,0.206
HCC-15,0.566,0.627,0.587,0.705,0.678,0.844,0.817,0.803,0.854,0.824,0.752,0.884,0.755,0.594,0.367,0.941,0.832,0.874,0.417,0.38
HCC-44,0.902,1.03,0.869,1.01,0.945,1.09,1.09,1.06,1.23,1.14,1.09,1,1,0.68,0.547,0.907,0.722,0.601,0.337,0.3
HCC-78,,,0.738,0.705,0.801,,,0.444,0.597,0.508,0.769,0.753,0.612,0.47,0.493,0.358,0.33,0.282,0.247,0.198
HCC-366,0.342,0.344,0.316,0.316,0.341,0.356,0.393,0.344,0.354,0.377,0.897,0.988,1.03,0.445,0.613,0.329,0.369,0.401,0.175,0.134
HCC-827,0.325,0.313,0.324,0.37,0.351,0.906,0.732,0.7,0.92,0.924,0.209,0.206,0.201,0.172,0.196,0.964,1.01,0.943,0.468,0.359
HOP-62,0.21,0.221,0.259,0.205,0.204,0.607,0.605,0.658,0.628,0.732,1.28,1.04,0.891,0.756,0.667,1.19,1.09,0.876,0.468,0.323
LC-2-ad,0.797,0.835,0.776,0.776,0.841,0.657,0.712,0.689,0.708,0.772,1.01,,1.06,0.728,0.437,0.916,,0.817,0.64,0.533
LCLC-97TM1,0.195,0.253,0.244,,0.228,0.625,0.746,0.748,,0.984,0.926,0.558,0.842,0.269,0.317,0.304,0.218,0.186,0.134,0.151
LK-2,0.22,0.32,0.331,0.33,0.329,0.295,0.318,0.33,0.405,0.392,0.804,0.831,0.807,0.474,0.235,0.934,1.03,0.793,0.526,0.416
LOU-NH91,0.783,0.818,0.781,0.801,0.805,0.837,0.855,0.91,0.856,0.908,0.725,0.782,0.666,0.567,0.51,0.623,0.665,0.669,0.496,0.471

Cell Line,relative viability (AZ505 + Decitabine; first compound 0.08 µM),relative viability (AZ505 + Decitabine; first compound 0.253 µM),relative viability (AZ505 + Decitabine; first compound 0.8 µM),relative viability (AZ505 + Decitabine; first compound 2.53 µM),relative viability (AZ505 + Decitabine; first compound 8 µM),relative viability (AZ505 + Vorinostat; first compound 0.08 µM),relative viability (AZ505 + Vorinostat; first compound 0.253 µM),relative viability (AZ505 + Vorinostat; first compound 0.8 µM),relative viability (AZ505 + Vorinostat; first compound 2.53 µM),relative viability (AZ505 + Vorinostat; first compound 8 µM),relative viability (Dactolisib + Lapatinib; first compound 0.002 µM),relative viability (Dactolisib + Lapatinib; first compound 0.006325 µM),relative viability (Dactolisib + Lapatinib; first compound 0.02 µM),relative viability (Dactolisib + Lapatinib; first compound 0.06325 µM),relative viability (Dactolisib + Lapatinib; first compound 0.2 µM),relative viability (Dactolisib + Alpelisib; first compound 0.002 µM),relative viability (Dactolisib + Alpelisib; first compound 0.006325 µM),relative viability (Dactolisib + Alpelisib; first compound 0.02 µM),relative viability (Dactolisib + Alpelisib; first compound 0.06325 µM),relative viability (Dactolisib + Alpelisib; first compound 0.2 µM)
LU99A,0.841,0.921,0.802,,0.87,0.545,0.533,0.506,,0.504,0.94,0.828,0.516,0.336,0.257,0.483,0.333,0.273,0.242,0.192
LXF-289,0.355,0.39,0.396,0.347,0.386,0.807,0.787,0.808,0.703,0.787,0.92,0.906,0.916,0.884,0.731,1.12,0.973,1.01,0.927,0.597
NCI-H23,0.284,0.326,0.327,0.306,0.311,0.526,0.582,0.561,0.81,0.627,1.15,1.1,0.886,0.292,0.313,0.629,0.607,0.615,0.356,0.303
NCI-H322M,0.679,,0.67,0.677,0.76,0.824,,0.888,0.837,0.882,0.612,0.583,0.616,0.527,0.508,0.899,0.839,0.8,0.609,0.511
NCI-H358,0.2,0.209,0.194,0.218,0.21,0.665,1.03,0.834,0.633,0.69,0.443,0.439,0.379,0.304,0.267,0.951,0.786,0.718,0.3,0.18
NCI-H460,0.481,0.525,0.461,0.584,0.521,0.69,0.912,0.672,0.71,0.782,0.965,0.945,0.927,0.234,0.112,0.723,0.352,0.35,0.0712,0.0542
NCI-H520,0.458,0.583,0.465,0.519,0.601,0.594,0.847,0.648,0.731,0.781,0.888,0.753,0.655,0.221,0.128,1.11,0.657,0.753,0.263,0.194
NCI-H596,0.976,,0.974,1.15,0.979,0.549,,0.577,0.612,0.521,1.02,1.06,0.909,0.574,0.369,0.461,0.474,0.386,0.322,0.259
NCI-H647,0.356,0.451,0.372,0.373,0.379,0.446,0.747,0.529,0.583,1.06,0.912,0.799,0.646,0.184,0.169,1.33,0.811,0.543,0.164,0.125
NCI-H650,0.311,0.343,0.301,0.316,0.288,0.395,0.425,0.348,0.567,0.556,0.91,1,0.691,0.55,0.452,1.19,0.964,1.01,0.46,0.507
NCI-H661,0.54,0.575,0.522,0.575,0.582,0.744,0.818,0.797,0.75,0.888,0.434,0.475,0.414,0.257,0.263,0.823,0.6,0.62,0.484,0.225
NCI-H727,0.829,0.693,0.812,0.849,0.987,1.11,1.07,1.2,1.11,1.3,0.753,0.648,0.994,0.363,0.345,0.601,0.525,0.4,0.291,0.304
NCI-H838,0.444,0.475,0.461,0.469,0.506,0.674,0.73,0.67,0.737,0.787,0.983,0.717,0.463,0.249,0.224,0.926,0.704,0.699,0.287,0.283
NCI-H1355,0.345,0.366,0.37,0.379,0.351,0.53,0.59,0.585,0.624,0.62,1.02,0.879,0.939,0.521,0.388,0.941,0.794,0.723,0.385,0.255
NCI-H1395,0.745,,0.664,0.699,0.767,0.711,,0.68,0.744,0.812,1,0.918,0.966,0.708,0.545,0.863,0.757,1.23,0.602,0.511
NCI-H1437,0.574,0.571,0.62,0.625,0.555,0.828,0.838,0.858,0.955,0.823,0.797,0.835,0.807,0.517,0.234,1,0.991,0.918,0.836,0.81

# From the supplement of paper PMC10307832
